According to ChEMBL document CHEMBL2406917, “Phaeolschidins A-E, five hispidin derivatives with antioxidant activity from the fruiting body of Phaeolus schweinitzii collected in the Tibetan Plateau” (J Nat Prod, 2013):
pIC50: −log10 of the molar value. Activity calls are given as the source filed them. No cut-off for these calls is given here.

Legend:
[1] = tested on: SW480; assay: Cytotoxicity against human SW480 cells up to 200 uM by MTT assay; type: cell-based
[2] = tested on: HCT-116; assay: Cytotoxicity against human HCT116 cells up to 200 uM by MTT assay; type: cell-based
[3] = Total antioxidant capacity of the compound at 25 uM relative to control; type: physicochemical
[4] = Total antioxidant capacity of the compound at 50 uM relative to control; type: physicochemical
[5] = tested on: Radical scavenging activity; assay: Antioxidant activity assessed as DPPH free radical scavenging activity after 30 mins; type: functional
[6] = Total antioxidant capacity of the compound at 200 uM relative to control; type: physicochemical
[7] = Total antioxidant capacity of the compound at 100 uM relative to control; type: physicochemical
[8] = tested on: Liver; assay: Antioxidant activity against Fe2+/ascorbic acid-induced lipid peroxidation in mouse liver homogenates assessed as total MDA level at 200 uM after 1.5 hrs; type: functional, tissue-based
[9] = tested on: Liver; assay: Antioxidant activity against Fe2+/ascorbic acid-induced lipid peroxidation in mouse liver homogenates after 1.5 hrs; type: functional, tissue-based

TAC [3] [U]	TAC [4] [U]	pIC50 [5]	TAC [6] [U]	TAC [7] [U]	pIC50 [9]	Compound	Activity [1]	Activity [2]	Activity [8]
6.82	8.41	4.05	10.74	9.74		O=C(O)CCC(c1c(O)cc(/C=C/c2ccc(O)c(O)c2)oc1=O)c1c(O)cc(/C=C/c2ccc(O)c(O)c2)oc1=O	Non-toxic	Non-toxic	
2.41	2.78	< 3.70	6.91	4.24		O=C1CC(c2c(O)cc(/C=C/c3ccc(O)c(O)c3)oc2=O)CN1 (stereo unspecified)	Non-toxic	Non-toxic	
3.61	5.28	4.02	10.81	7.6	< 3.70	CC(C)CC(c1c(O)cc(/C=C/c2ccc(O)c(O)c2)oc1=O)c1c(O)cc(/C=C/c2ccc(O)c(O)c2)oc1=O	Non-toxic	Non-toxic	Active

The remaining lines, values behind:

Compound	TAC [3] [U]	TAC [4] [U]	pIC50 [5]	TAC [6] [U]	TAC [7] [U]	pIC50 [9]	Activity [1]	Activity [2]	Activity [8]
O=c1cc(O)cc(/C=C/c2ccc(O)c(O)c2)o1 [HISPIDIN]	5.83	9.27	4.23	10.25	10.03	< 3.70	Non-toxic	Non-toxic	Active
O=C1O[C@H]([C@@H](O)CO)C(O)=C1O [ASCORBIC ACID]	17.33	17.42		21.68	18.97				
CC(C)C(c1c(O)cc(/C=C/c2ccc(O)c(O)c2)oc1=O)c1c(O)cc(/C=C/c2ccc(O)c(O)c2)oc1=O	2.1	2.88	< 3.70	5.39	4.8	< 3.70	Non-toxic	Non-toxic	Active
CC(c1c(O)cc(/C=C/c2ccc(O)c(O)c2)oc1=O)c1c(O)cc(/C=C/c2ccc(O)c(O)c2)oc1=O [PINILLIDINE]	2.02	2.67	< 3.70	5.16	3.46	< 3.70	Non-toxic	Non-toxic	Active
COC(=O)CCC(c1c(O)cc(/C=C/c2ccc(O)c(O)c2)oc1=O)c1c(O)cc(/C=C/c2ccc(O)c(O)c2)oc1=O	3	3.4	4.02	11.06	6.5		Non-toxic	Non-toxic	
